Reference: ChEMBL document CHEMBL3797052 (Eur J Med Chem, 2016)

tested on: not listed separately; assay: Antiproliferative activity against human Hs 578T cells assessed as cell growth at 10^-6 M after 48 hrs by sulforhodamine B assay; format: functional; conditions: read-out: Activity

Row | SMILES | growth at 1 µM [%]
1 | CNC(=O)c1cc(Oc2ccc3nc(NC(=O)c4cc(C(F)(F)F)cc(C(F)(F)F)c4)sc3c2)ccn1 | 94

tested on: NCI-H522; assay: Antiproliferative activity against human NCI-H522 cells assessed as cell growth at 10^-8 M after 48 hrs by sulforhodamine B assay; format: functional; conditions: NCI-H522, 48 h, read-out: Activity

Row | SMILES | growth at 0.01 µM [%]
2 | CNC(=O)c1cc(Oc2ccc3nc(NC(=O)c4cc(C(F)(F)F)cc(C(F)(F)F)c4)sc3c2)ccn1 | 90

tested on: T47D; assay: Antiproliferative activity against human T47D cells assessed as cell growth at 10^-7 M after 48 hrs by sulforhodamine B assay; format: functional; conditions: read-out: Activity

Row | SMILES | growth at 0.1 µM [%]
3 | CNC(=O)c1cc(Oc2ccc3nc(NC(=O)c4cc(C(F)(F)F)cc(C(F)(F)F)c4)sc3c2)ccn1 | 88

tested on: not listed separately; assay: Antiproliferative activity against human TK10 cells assessed as cell growth at 10^-6 M after 48 hrs by sulforhodamine B assay; format: functional; conditions: TK-10, 48 h, read-out: Activity

Row | SMILES | growth at 1 µM [%]
4 | CNC(=O)c1cc(Oc2ccc3nc(NC(=O)c4cc(C(F)(F)F)cc(C(F)(F)F)c4)sc3c2)ccn1 | 97

tested on: not listed separately; assay: Antiproliferative activity against human SF539 cells assessed as growth inhibition after 48 hrs by sulforhodamine B assay; format: functional; conditions: SF-539, 48 h

Row | SMILES | GI50 [µM] | LC50 [µM] | TGI [µM]
5 | CNC(=O)c1cc(Oc2ccc3nc(NC(=O)c4cc(C(F)(F)F)cc(C(F)(F)F)c4)sc3c2)ccn1 | 3.14 | 71.1 | 14.8

tested on: SK-MEL-2; assay: Antiproliferative activity against human SK-MEL-2 cells assessed as cell growth at 10^-6 M after 48 hrs by sulforhodamine B assay; format: functional; conditions: SK-MEL-2, 48 h, read-out: Activity

Row | SMILES | growth at 1 µM [%]
6 | CNC(=O)c1cc(Oc2ccc3nc(NC(=O)c4cc(C(F)(F)F)cc(C(F)(F)F)c4)sc3c2)ccn1 | 90

tested on: Malme-3M; assay: Antiproliferative activity against human MALME-3M cells assessed as cell growth at 10^-6 M after 48 hrs by sulforhodamine B assay; format: functional; conditions: read-out: Activity

Row | SMILES | growth at 1 µM [%]
7 | CNC(=O)c1cc(Oc2ccc3nc(NC(=O)c4cc(C(F)(F)F)cc(C(F)(F)F)c4)sc3c2)ccn1 | 80

tested on: NCI-H322M; assay: Antiproliferative activity against human NCI-H322M cells assessed as cell growth at 10^-7 M after 48 hrs by sulforhodamine B assay; format: functional; conditions: read-out: Activity

Row | SMILES | growth at 0.1 µM [%]
8 | CNC(=O)c1cc(Oc2ccc3nc(NC(=O)c4cc(C(F)(F)F)cc(C(F)(F)F)c4)sc3c2)ccn1 | 93

tested on: not listed separately; assay: Antiproliferative activity against human OVCAR8 cells assessed as cell growth at 10^-6 M after 48 hrs by sulforhodamine B assay; format: functional; conditions: OVCAR-8, 48 h, read-out: Activity

Row | SMILES | growth at 1 µM [%]
9 | CNC(=O)c1cc(Oc2ccc3nc(NC(=O)c4cc(C(F)(F)F)cc(C(F)(F)F)c4)sc3c2)ccn1 | 90

tested on: not listed separately; assay: Antiproliferative activity against human OVCAR5 cells assessed as cell growth at 10^-4 M after 48 hrs by sulforhodamine B assay; format: functional; conditions: OVCAR-5, 48 h, read-out: Activity

Row | SMILES | growth at 100 µM [%]
10 | CNC(=O)c1cc(Oc2ccc3nc(NC(=O)c4cc(C(F)(F)F)cc(C(F)(F)F)c4)sc3c2)ccn1 | -48

tested on: SK-MEL-5; assay: Antiproliferative activity against human SK-MEL-5 cells assessed as cell growth at 10^-6 M after 48 hrs by sulforhodamine B assay; format: functional; conditions: SK-MEL-5, 48 h, read-out: Activity

Row | SMILES | growth at 1 µM [%]
11 | CNC(=O)c1cc(Oc2ccc3nc(NC(=O)c4cc(C(F)(F)F)cc(C(F)(F)F)c4)sc3c2)ccn1 | 83

tested on: SK-MEL-28; assay: Antiproliferative activity against human SK-MEL-28 cells assessed as cell growth at 10^-4 M after 48 hrs by sulforhodamine B assay; format: functional; conditions: SK-MEL-28, 48 h, read-out: Activity

Row | SMILES | growth at 100 µM [%]
12 | CNC(=O)c1cc(Oc2ccc3nc(NC(=O)c4cc(C(F)(F)F)cc(C(F)(F)F)c4)sc3c2)ccn1 | -13

tested on: not listed separately; assay: Antiproliferative activity against human BT549 cells assessed as cell growth at 10^-8 M after 48 hrs by sulforhodamine B assay; format: functional; conditions: BT-549, 48 h, read-out: Activity

Row | SMILES | growth at 0.01 µM [%]
13 | CNC(=O)c1cc(Oc2ccc3nc(NC(=O)c4cc(C(F)(F)F)cc(C(F)(F)F)c4)sc3c2)ccn1 | 97

tested on: NCI-H23; assay: Antiproliferative activity against human NCI-H23 cells assessed as cell growth at 10^-4 M after 48 hrs by sulforhodamine B assay; format: functional; conditions: NCI-H23, 48 h, read-out: Activity

Row | SMILES | growth at 100 µM [%]
14 | CNC(=O)c1cc(Oc2ccc3nc(NC(=O)c4cc(C(F)(F)F)cc(C(F)(F)F)c4)sc3c2)ccn1 | -45

tested on: not listed separately; assay: Antiproliferative activity against human COLO205 cells assessed as cell growth at 10^-8 M after 48 hrs by sulforhodamine B assay; format: functional; conditions: COLO 205, 48 h, read-out: Activity

Row | SMILES | growth at 0.01 µM [%]
15 | CNC(=O)c1cc(Oc2ccc3nc(NC(=O)c4cc(C(F)(F)F)cc(C(F)(F)F)c4)sc3c2)ccn1 | 99

tested on: A498; assay: Antiproliferative activity against human A498 cells assessed as cell growth at 10^-4 M after 48 hrs by sulforhodamine B assay; format: functional; conditions: A498, 48 h, read-out: Activity

Row | SMILES | growth at 100 µM [%]
16 | CNC(=O)c1cc(Oc2ccc3nc(NC(=O)c4cc(C(F)(F)F)cc(C(F)(F)F)c4)sc3c2)ccn1 | -65

tested on: not listed separately; assay: Antiproliferative activity against human SNB19 cells assessed as cell growth at 10^-6 M after 48 hrs by sulforhodamine B assay; format: functional; conditions: SNB-19, 48 h, read-out: Activity

Row | SMILES | growth at 1 µM [%]
17 | CNC(=O)c1cc(Oc2ccc3nc(NC(=O)c4cc(C(F)(F)F)cc(C(F)(F)F)c4)sc3c2)ccn1 | 96

tested on: MCF7; assay: Antiproliferative activity against human MCF7 cells assessed as cell growth at 10^-4 M after 48 hrs by sulforhodamine B assay; format: functional; conditions: MCF7, 48 h, read-out: Activity

Row | SMILES | growth at 100 µM [%]
18 | CNC(=O)c1cc(Oc2ccc3nc(NC(=O)c4cc(C(F)(F)F)cc(C(F)(F)F)c4)sc3c2)ccn1 | -49

tested on: SR; assay: Antiproliferative activity against human SR cells assessed as cell growth at 10^-4 M after 48 hrs by sulforhodamine B assay; format: functional; conditions: read-out: Activity

Row | SMILES | growth at 100 µM [%]
19 | CNC(=O)c1cc(Oc2ccc3nc(NC(=O)c4cc(C(F)(F)F)cc(C(F)(F)F)c4)sc3c2)ccn1 | -23

tested on: not listed separately; assay: Antiproliferative activity against human HOP92 cells assessed as cell growth at 10^-8 M after 48 hrs by sulforhodamine B assay; format: functional; conditions: HOP-92, 48 h, read-out: Activity

Row | SMILES | growth at 0.01 µM [%]
20 | CNC(=O)c1cc(Oc2ccc3nc(NC(=O)c4cc(C(F)(F)F)cc(C(F)(F)F)c4)sc3c2)ccn1 | 91

tested on: SK-MEL-5; assay: Antiproliferative activity against human SK-MEL-5 cells assessed as cell growth at 10^-4 M after 48 hrs by sulforhodamine B assay; format: functional; conditions: SK-MEL-5, 48 h, read-out: Activity

Row | SMILES | growth at 100 µM [%]
21 | CNC(=O)c1cc(Oc2ccc3nc(NC(=O)c4cc(C(F)(F)F)cc(C(F)(F)F)c4)sc3c2)ccn1 | -89

tested on: not listed separately; assay: Antiproliferative activity against human RPMI8226 cells assessed as growth inhibition after 48 hrs by sulforhodamine B assay; format: functional; conditions: RPMI-8226, 48 h

Row | SMILES | GI50 [nM] | LC50 [µM]
22 | CNC(=O)c1cc(Oc2ccc3nc(NC(=O)c4cc(C(F)(F)F)cc(C(F)(F)F)c4)sc3c2)ccn1 | 2420 | > 100
